This is an account of results in patent publication US6479054B1, “Process for obtaining genistin-rich isoflavone composition” (Showa Sangyo Co., Ltd., priority 1998, dated 2002).

The data set in a line: Solubility of genistin in isoflavone containing eluate as a function of pH (FIG. 1). The data set is classed as physicochemical. An excerpt:
Concentrations of isoflavones in a supernatant are shown, making each isoflavone concentration at the time of elution 100.).

Each structure is given as a SMILES string.

As to `O=c1c(-c2ccc(O)cc2)coc2cc(O[C@@H]3O[C@H](CO)[C@@H](O)[C@H](O)[C@H]3O)cc(O)c12` [genistin], the “solubility of genistin in an isoflavone containing eluate” value runs as follows: (pHs of not less than 10) “extremely high”; (pHs of not more than 9.5) “extremely low”.
